Like-named read-outs stand apart in the source and are kept apart here.
How the values were obtained:
[1] = cited from earlier work
[2] = tested on: antibodies specific for LSD; conditions: KIMS (Roche Diagnostics) immunoassay; cited from earlier work
Clone 2.1 = assay: ELISA antibody cross-reactivity, Clone 2.1; assay type: binding, mouse
Method: (§1) Cross-reactivity of three clones for LSD, nor-LSD and 2-oxo-3-hydroxy-LSD was determined using an ELISA technique. Microtiter plates were coated with 100 μl of 0.325 mg/ml LSD-BSA or 100 μl of 0.325 mg/ml 2-oxo-3-hydroxy-LSD-BSA for 1 hour at 37° C. and post-blocked with 200 μl of 1% BSA in PBS for 1 hour at room temperature. Plates were washed 3 times with 400 μl of PBS-0.1% TWEEN-20. Free LSD, nor-LSD and 2-oxo-3-hydroxy-LSD were diluted to 1000 ng/ml in PBS. Antibody was diluted 8,000 fold. Drug solutions, 200 μl of 1000 ng/ml, solutions were dispensed into the first column of an ELISA plate. The rest of the wells were filled with 100 μl of PBS. Serial dilutions of the drugs were prepared by taking 100 μl of the drug solution out of the first column and dispensing it into the second column of the plate. Contents of the wells were mixed thoroughly by pipetting the solution up and down 5 times. 100 μl out of the second column was dispensed into the third column and mixed as above. The process was repeated for all 12 columns of ELISA plates. 100 μl of solution out of the last wells was discarded. 100 μl of antibody diluted 8,000 fold was added to each well. Resulting concentrations of the drug were 500 ng/ml, 250 ng/ml, 125 ng/ml, 62.5 ng/ml, 31.2 ng/ml, 15.6 ng/ml, 7.81 ng/ml, 3.90 ng/ml, 1.95 ng/ml, 0.976 ng/ml, 0.488 ng/ml, 0.244 ng/ml. Final antibody dilution was 16,000 fold. Plates were incubated for 1 hour at 37° C. and washed 3 times with PBS-TWEEN-20. Rabbit anti-mouse HRP conjugated IgG was diluted 5,000 fold and 100 μl were added to ELISA plates. The plates were incubated for 1 hour at 37° C. and washed 3 times with PBS-TWEEN-20. 100 μl of K-BLUE substrate was dispensed into each well. Plates were incubated for 30 min at room temperature in the dark. The reaction was stopped with 100 μl of 2 M H3PO4, and absorbance was read at 450 nm.

Clone 20.2 = assay: ELISA antibody cross-reactivity, Clone 20.2; assay type: binding, mouse
Method: as §1

Clone 1.1 = assay: ELISA antibody cross-reactivity, Clone 1.1; assay type: binding, mouse
Method: as §1

[3] = tested on: antibodies specific for LSD; conditions: CEDIA (Microgenics Corporation) immunoassay; cited from earlier work
[4] = tested on: antibodies specific for LSD; conditions: EMIT (Syva Company) immunoassay; cited from earlier work
[5] = Dilution 0.2 (free drug 0.244 ng/ml)
[6] = Dilution 0.5 (free drug 0.488 ng/ml)
[7] = Dilution 1.0 (free drug 0.976 ng/ml)
[8] = Dilution 2.0 (free drug 1.95 ng/ml)
[9] = Dilution 3.9 (free drug 3.90 ng/ml)
[10] = Dilution 7.8 (free drug 7.81 ng/ml)
[11] = Dilution 15.6 (free drug 15.6 ng/ml)
[12] = Dilution 31.3 (free drug 31.2 ng/ml)
[13] = Dilution 62.5 (free drug 62.5 ng/ml)
[14] = Dilution 125.0 (free drug 125 ng/ml)
[15] = Dilution 250.0 (free drug 250 ng/ml)
[16] = Dilution 500.0 (free drug 500 ng/ml)
[17] = based upon specificity to 2-oxo-3-hydroxy-LSD

CCN(CC)C(=O)[C@@H]1C=C2c3cccc4c3C(O)(C[C@H]2N(C)C1)C(=O)N4 (stereo partly drawn) [2-oxo-3-hydroxy-LSD, 2-oxo-3-hydroxy-d-lysergic acid diethylamide]
time detectable after ingestion of the drug ([1]; urine, compared with LSD): can be detected for a longer time than LSD
cross-reactivity [2]: 11%
A450 (Clone 2.1; [5]): 0.846
A450 (Clone 2.1; [6]): 0.690
A450 (Clone 2.1; [7]): 0.552
A450 (Clone 2.1; [8]): 0.531
A450 (Clone 2.1; [9]): 0.372
A450 (Clone 2.1; [10]): 0.321
A450 (Clone 2.1; [11]): 0.294
A450 (Clone 2.1; [12]): 0.309
A450 (Clone 2.1; [13]): 0.243
A450 (Clone 2.1; [14]): 0.256
A450 (Clone 2.1; [15]): 0.297
A450 (Clone 2.1; [16]): 0.243
Calculated percentage cross-reactivity (Clone 2.1; [17]): 100.0%
Calculated percentage cross-reactivity (Clone 2.1; based upon specificity to LSD): 131.4%
A450 (Clone 20.2; [5]): 0.838
A450 (Clone 20.2; [6]): 0.704
A450 (Clone 20.2; [7]): 0.430
A450 (Clone 20.2; [8]): 0.372
A450 (Clone 20.2; [9]): 0.316
A450 (Clone 20.2; [10]): 0.272
A450 (Clone 20.2; [11]): 0.220
A450 (Clone 20.2; [12]): 0.148
A450 (Clone 20.2; [13]): 0.142
A450 (Clone 20.2; [14]): 0.143
A450 (Clone 20.2; [15]): 0.144
A450 (Clone 20.2; [16]): 0.142
Calculated percentage cross-reactivity (Clone 20.2; [17]): 100.0%
Calculated percentage cross-reactivity (Clone 20.2; based upon specificity to LSD): 118.5%
A450 (Clone 1.1; [5]): 3.913
A450 (Clone 1.1; [6]): 3.928
A450 (Clone 1.1; [7]): 4.033
A450 (Clone 1.1; [8]): 4.015
A450 (Clone 1.1; [9]): 3.908
A450 (Clone 1.1; [10]): 3.914
A450 (Clone 1.1; [11]): 3.310
A450 (Clone 1.1; [12]): 3.108
A450 (Clone 1.1; [13]): 2.278
A450 (Clone 1.1; [14]): 1.768
A450 (Clone 1.1; [15]): 1.425
A450 (Clone 1.1; [16]): 0.871
Calculated percentage cross-reactivity (Clone 1.1; [17]): 100.0%
Calculated percentage cross-reactivity (Clone 1.1; based upon specificity to LSD): 133.6%
cross-reactivity [3]: 1.8%
cross-reactivity [4]: 1.7%

CCN(CC)C(=O)[C@@H]1C=C2c3cccc4[nH]cc(c34)C[C@H]2N(C)C1 [LSD, 9,10-didehydro-N,N-diethyl-6-methylergoline-8β-carboxamide]
parent drug excreted in human urine ([1]; human urine): about 1%
A450 (Clone 2.1; [5]): 0.831
A450 (Clone 2.1; [6]): 0.738
A450 (Clone 2.1; [7]): 0.579
A450 (Clone 2.1; [8]): 0.523
A450 (Clone 2.1; [9]): 0.435
A450 (Clone 2.1; [10]): 0.339
A450 (Clone 2.1; [11]): 0.303
A450 (Clone 2.1; [12]): 0.294
A450 (Clone 2.1; [13]): 0.252
A450 (Clone 2.1; [14]): 0.240
A450 (Clone 2.1; [15]): 0.234
A450 (Clone 2.1; [16]): 0.236
Calculated percentage cross-reactivity (Clone 2.1; [17]): 76.1%
Calculated percentage cross-reactivity (Clone 2.1; based upon specificity to LSD): 100.0%
A450 (Clone 20.2; [5]): 0.833
A450 (Clone 20.2; [6]): 0.658
A450 (Clone 20.2; [7]): 0.587
A450 (Clone 20.2; [8]): 0.328
A450 (Clone 20.2; [9]): 0.284
A450 (Clone 20.2; [10]): 0.204
A450 (Clone 20.2; [11]): 0.160
A450 (Clone 20.2; [12]): 0.126
A450 (Clone 20.2; [13]): 0.126
A450 (Clone 20.2; [14]): 0.124
A450 (Clone 20.2; [15]): 0.188
A450 (Clone 20.2; [16]): 0.122
Calculated percentage cross-reactivity (Clone 20.2; [17]): 84.4%
Calculated percentage cross-reactivity (Clone 20.2; based upon specificity to LSD): 100.0%
A450 (Clone 1.1; [5]): 3.797
A450 (Clone 1.1; [6]): 4.085
A450 (Clone 1.1; [7]): 3.962
A450 (Clone 1.1; [8]): 3.905
A450 (Clone 1.1; [9]): 3.951
A450 (Clone 1.1; [10]): 3.831
A450 (Clone 1.1; [11]): 3.519
A450 (Clone 1.1; [12]): 3.390
A450 (Clone 1.1; [13]): 2.633
A450 (Clone 1.1; [14]): 2.050
A450 (Clone 1.1; [15]): 1.433
A450 (Clone 1.1; [16]): 0.831
Calculated percentage cross-reactivity (Clone 1.1; [17]): 74.9%
Calculated percentage cross-reactivity (Clone 1.1; based upon specificity to LSD): 100.0%

CCN(CC)C(=O)[C@@H]1C=C2c3cccc4[nH]cc(c34)C[C@H]2NC1 [nor-LSD, N-desmethyl-LSD]
A450 (Clone 2.1; [5]): 0.900
A450 (Clone 2.1; [6]): 0.859
A450 (Clone 2.1; [7]): 0.842
A450 (Clone 2.1; [8]): 0.792
A450 (Clone 2.1; [9]): 0.786
A450 (Clone 2.1; [10]): 0.696
A450 (Clone 2.1; [11]): 0.648
A450 (Clone 2.1; [12]): 0.504
A450 (Clone 2.1; [13]): 0.444
A450 (Clone 2.1; [14]): 0.384
A450 (Clone 2.1; [15]): 0.318
A450 (Clone 2.1; [16]): 0.276
Calculated percentage cross-reactivity (Clone 2.1; [17]): 1.8%
Calculated percentage cross-reactivity (Clone 2.1; based upon specificity to LSD): 2.3%
A450 (Clone 20.2; [5]): 0.908
A450 (Clone 20.2; [6]): 0.866
A450 (Clone 20.2; [7]): 0.853
A450 (Clone 20.2; [8]): 0.799
A450 (Clone 20.2; [9]): 0.722
A450 (Clone 20.2; [10]): 0.656
A450 (Clone 20.2; [11]): 0.584
A450 (Clone 20.2; [12]): 0.464
A450 (Clone 20.2; [13]): 0.416
A450 (Clone 20.2; [14]): 0.292
A450 (Clone 20.2; [15]): 0.228
A450 (Clone 20.2; [16]): 0.288
Calculated percentage cross-reactivity (Clone 20.2; [17]): 4.6%
Calculated percentage cross-reactivity (Clone 20.2; based upon specificity to LSD): 5.5%
A450 (Clone 1.1; [5]): 4.019
A450 (Clone 1.1; [6]): 4.074
A450 (Clone 1.1; [7]): 4.100
A450 (Clone 1.1; [8]): 3.884
A450 (Clone 1.1; [9]): 4.035
A450 (Clone 1.1; [10]): 3.805
A450 (Clone 1.1; [11]): 3.740
A450 (Clone 1.1; [12]): 3.735
A450 (Clone 1.1; [13]): 3.601
A450 (Clone 1.1; [14]): 3.512
A450 (Clone 1.1; [15]): 3.340
A450 (Clone 1.1; [16]): 2.968
Calculated percentage cross-reactivity (Clone 1.1; [17]): 1.9%
Calculated percentage cross-reactivity (Clone 1.1; based upon specificity to LSD): 2.6%

— patent publication US20070122859A1, “Immunoassay for LSD and 2-oxo-3-hydroxy-LSD” (priority 2000, published 2007)
